Reference: the NIST ThermoML archive (doi:10.1016/j.jct.2013.12.009)

What was measured:
[1] = for speed of sound / kinematic viscosity / mass density: Liquid; for speed of sound: Sing-around technique in a fixed-path interferometer; for surface tension liquid-gas: Pendant drop shape; for kinematic viscosity: Capillary tube (Ostwald / Ubbelohde) method; for mass density: Vibrating tube method
[2] = xn = mol fraction of the nth substance listed; details: for surface tension liquid-gas: Pendant drop shape; for viscosity / mass density: 101 kPa, Liquid; for viscosity: Concentric cylinders viscometry; for mass density: Vibrating tube method

CCC[N+]1(C)CCCC1.O=S(=O)([N-]S(=O)(=O)C(F)(F)F)C(F)(F)F
[1], 101.33 kPa
Details	kinematic viscosity [m2/s]	mass density [kg/m3]	speed of sound [m/s]
288.01 K	–	–	1294.4
288.15 K	6.82e-05	1436.86	–
293.01 K	–	–	1282.8
293.15 K	5.33e-05	1432.36	–
297.99 K	–	–	1271.3
298.15 K	4.26e-05	1427.83	–
303.15 K	3.48e-05	1423.32	–
303.24 K	–	–	1259.5
308.15 K	2.88e-05	1418.81	–
308.21 K	–	–	1248.6
313.15 K	2.42e-05	1414.3	–
313.2 K	–	–	1237.6
318.15 K	2.06e-05	1409.86	–
318.16 K	–	–	1226.9
323.15 K	1.76e-05	1405.41	–
323.21 K	–	–	1216.2

[1]
Details	surface tension liquid-gas [mN/m]
288.15 K	35.04
293.15 K	34.87
298.15 K	34.61
303.15 K	34.37
308.15 K	34.14
313.15 K	33.94
318.15 K	33.72
323.15 K	33.48

CCCC[N+]1(C)CCCC1.O=S(=O)([N-]S(=O)(=O)C(F)(F)F)C(F)(F)F + CO
[2]
Details	mass density, 288.15 K [kg/m3]	mass density, 298.15 K [kg/m3]	mass density, 308.15 K [kg/m3]	surface tension liquid-gas, 288.15 K [mN/m]	surface tension liquid-gas, 298.15 K [mN/m]	surface tension liquid-gas, 308.15 K [mN/m]	viscosity, 288.15 K [mPa·s]	viscosity, 298.15 K [mPa·s]	viscosity, 308.15 K [mPa·s]
x1 = 0.0495	970.4	960.7	951.1	24.36	23.54	22.73	–	–	–
x1 = 0.1886	1186.4	1176.8	1167.3	26.9	26.36	25.86	–	–	–
x1 = 0.2054	–	–	–	–	–	–	5.04	3.91	3.11
x1 = 0.3407	1281.7	1272.3	1263	29.25	28.95	28.63	–	–	–
x1 = 0.4365	–	–	–	–	–	–	17.5	12.51	9.35
x1 = 0.4932	1332.2	1323	1313.8	31.03	30.85	30.54	–	–	–
x1 = 0.5394	–	–	–	–	–	–	26.71	18.54	13.51
x1 = 0.6076	1356.2	1347	1338	32.08	31.67	31.36	–	–	–
x1 = 0.637	1361.2	1352.1	1343	32.25	31.94	31.65	–	–	–
x1 = 0.7067	–	–	–	–	–	–	49.43	32.82	23.02
x1 = 0.801	1384	1375	1366.1	33.23	32.77	32.33	–	–	–
x1 = 0.8363	1388.1	1379.1	1370.3	–	–	–	–	–	–
x1 = 0.9135	1395.6	1386.7	1377.9	33.57	33.1	32.65	–	–	–
x1 = 1	1403.4	1394.5	1385.7	33.71	33.22	32.82	–	–	–

CCCC[N+]1(C)CCCC1.O=S(=O)([N-]S(=O)(=O)C(F)(F)F)C(F)(F)F + CC#N
[2]
Details	mass density, 288.15 K [kg/m3]	mass density, 298.15 K [kg/m3]	mass density, 308.15 K [kg/m3]	surface tension liquid-gas, 288.15 K [mN/m]	surface tension liquid-gas, 298.15 K [mN/m]	surface tension liquid-gas, 308.15 K [mN/m]	viscosity, 288.15 K [mPa·s]	viscosity, 298.15 K [mPa·s]	viscosity, 308.15 K [mPa·s]
x1 = 0.053	941.8	931.2	920.5	30.92	29.78	28.55	–	–	–
x1 = 0.1924	–	–	–	–	–	–	2.41	2.02	1.73
x1 = 0.1989	1156.4	1146.2	1136.2	32.45	31.45	30.57	–	–	–
x1 = 0.3593	1263.1	1253.5	1243.9	33.18	32.48	31.76	–	–	–
x1 = 0.4602	–	–	–	–	–	–	13.16	9.79	7.56
x1 = 0.5201	1322.1	1312.7	1303.4	33.45	32.84	32.2	–	–	–
x1 = 0.598	–	–	–	–	–	–	26.33	18.47	13.58
x1 = 0.6103	1344.7	1335.5	1326.4	33.51	32.97	32.44	–	–	–
x1 = 0.788	1377.3	1368.3	1359.2	33.58	33.13	32.68	–	–	–
x1 = 0.8159	–	–	–	–	–	–	65.88	42.55	29.18
x1 = 0.9394	1396.6	1387.8	1379	33.71	33.2	32.72	–	–	–
x1 = 1	1403.4	1394.5	1385.7	33.71	33.22	32.82	–	–	–

CO [methanol]
[1]
Details	surface tension liquid-gas [mN/m]
288.15 K	22.88
298.15 K	22
308.15 K	21.01

[1], 101 kPa
Details	mass density [kg/m3]
288.15 K	795.8
298.15 K	786.45
308.15 K	777

CC#N [acetonitrile] + CCCC[N+]1(C)CCCC1.O=S(=O)([N-]S(=O)(=O)C(F)(F)F)C(F)(F)F
[2], x2 = 0
Details	mass density [kg/m3]	surface tension liquid-gas [mN/m]
288.15 K	787.2	29.53
298.15 K	776.5	28.34
308.15 K	765.7	27.15

CCCC[N+]1(C)CCCC1.O=S(=O)([N-]S(=O)(=O)C(F)(F)F)C(F)(F)F
[1], 101.33 kPa
Details	kinematic viscosity [m2/s]	mass density [kg/m3]	speed of sound [m/s]
288.02 K	–	–	1293.9
288.15 K	8.9e-05	1403.37	–
293.01 K	–	–	1281.8
293.15 K	6.96e-05	1398.92	–
298.01 K	–	–	1270
298.15 K	5.57e-05	1394.49	–
303.15 K	4.52e-05	1390.09	–
303.2 K	–	–	1258
308.14 K	–	–	1246.8
308.15 K	3.69e-05	1385.66	–
313.15 K	3.06e-05	1381.29	1235.7
318.12 K	–	–	1224.7
318.15 K	2.55e-05	1376.92	–
323.13 K	–	–	1213.8
323.15 K	2.15e-05	1372.54	–

[1]
Details	surface tension liquid-gas [mN/m]
288.15 K	33.71
293.15 K	33.44
298.15 K	33.22
303.15 K	33.02
308.15 K	32.82
313.15 K	32.6
318.15 K	32.35
323.15 K	32.15

CC#N [acetonitrile]
[1]
Details	surface tension liquid-gas [mN/m]
288.15 K	29.53
298.15 K	28.34
308.15 K	27.15

[1], 101 kPa
Details	mass density [kg/m3]
288.15 K	787.2
298.15 K	776.53
308.15 K	765.7

CO [methanol] + CCCC[N+]1(C)CCCC1.O=S(=O)([N-]S(=O)(=O)C(F)(F)F)C(F)(F)F
[2], x2 = 0
Details	mass density [kg/m3]	surface tension liquid-gas [mN/m]
288.15 K	795.8	22.88
298.15 K	786.4	22
308.15 K	777	21.01
